From patent US10851112B2, “Anti-HCMV virus compound” (MEDSHINE DISCOVERY INC., priority 2016, dated 2020)

Key:
[1] = Plasma protein binding rate test, equilibrium dialysis, SD rat plasma; format: in vitro ADME; settings: rat plasma (R), equilibrium dialysis 37° C. 4 hours, read-out: plasma protein binding PPB bound (%) (converted)
Description: (§1) Plasma Protein Binding Rate Test of the Compound
(§2) The protein binding rate of the test compound in CD-1 mice, SD rats, and human plasma was evaluated by equilibrium dialysis. The test compound was diluted into the plasma of the above three species respectively to prepare a sample with a final concentration of 2 μM. The sample was added to a 96-well equilibrium dialysis device, and dialyzed using a phosphate buffer solution at 37° C. for 4 hours. Warfarin was used as a control compound in the experiment. The concentration of the test compound and warfarin in the plasma and the buffer was determined by LC-MS/MS.

[2] = test system: US3-6-EGFP-HCMV-AD169 viruses; assay: Fluorescence decay assay against human cytomegalovirus; format: cell-based, human cytomegalovirus (HCMV); settings: Human betaherpesvirus 5, AD169, MRC5, 240 h
Description: Fluorescence Decay Assay Against Human Cytomegalovirus
The antiviral activity of the compound against human cytomegalovirus (HCMV) was evaluated by determining the half maximal effective concentration (EC50) of the compound. The HCMV used in this assay was inserted with enhanced green fluorescent protein (EGFP) by gene recombination, so the viral replication in cells could be reflected by the expression level of GFP. The inhibitory activity of the compound on HCMV GFP expression was evaluated by determining the fluorescence intensity in the wells of different concentrations of the compound using a high content cell analysis platform Acumen eX3.
Fluorescence Decay Assay Against HCMV
MRC5 cells were inoculated into a black 96-well cell culture plate at a density of 20,000 cells per well. The plate was incubated overnight in a 37° C., 5% CO2 incubator. US3-6-EGFP-HCMV-AD169 viruses were added to the cell culture well at a certain MOI (0.003-0.1) and the plate was incubated for 3 hours in a 37° C., 5% CO2 incubator. After adsorption of viruses, the medium containing viruses was aspirated and 200 μL of cell culture medium containing different concentrations of the compound (4-fold dilution, 6 test concentrations) was added. The final concentration of DMSO in the medium was 1%. Virus control wells (with DMSO added, but no compound was added) and inhibition control wells (with a high concentration of control compound added) were set. The cell plate was incubated for 10 days in a 37° C., 5% CO2 incubator and the liquid was renewed on the 4th day and 7th day. After 10 days of culture, the fluorescence intensity was determined using a high content cell analysis platform Acumen eX3 (TTP LabTech). The original data was used for calculating the antiviral activity of the compound.
The inhibition % was imported into GraphPad Prism software for data processing to give a corresponding dose-response curve for the compound and the EC50 of the test compound was obtained.

[3] = Plasma protein binding rate test, equilibrium dialysis, CD-1 mouse plasma; format: in vitro ADME; settings: mouse plasma (M), equilibrium dialysis 37° C. 4 hours, read-out: plasma protein binding PPB bound (%) (converted)
Description: as §1, §2

[4] = Plasma protein binding rate test, equilibrium dialysis, human plasma; format: in vitro ADME; settings: equilibrium dialysis 37° C. 4 hours, read-out: plasma protein binding PPB bound (%) (converted)
Description: as §1, §2

[5] = test system: HCMV viruses (strain: GFP-AD169); assay: Human cytomegalovirus (HCMV) transplantation model in mouse; format: in vivo; settings: NOD SCID mice, oral 8 mg/kg once a day, 1st to 9th day, plaque detection in gelatin sponge
Description: Human Cytomegalovirus (HCMV) Transplantation Model in Mouse
A gelatin sponge containing HCMV was transplanted into mice. After 9 days of continuous administration, the gelatin sponge was collected for plaque detection. The anti-HCMV effect of the compound in the model was evaluated by determining the amount of HCMV in the gelatin sponge.
The animals selected for the experiment were NOD SCID mice (purchased from Shanghai Slac Laboratory Animal Co., Ltd.), 5 weeks, male, 5 animals per group. The day when the mice were transplanted with gelatin sponge was set to be day 0. Human foreskin fibroblasts (HFF, MOI=0.03) were previously infected with HCMV viruses (strain: GFP-AD169). The HMV cells infected with HCMV were added to a 1 cm^2 gelatin sponge for incubation. Animals were anesthetized by intraperitoneal injection of pentobarbital sodium at a dose of 75 mg/kg (10 mL/kg). After the animals entered deep anesthesia, the prepared gelatin sponge was subcutaneously transplanted into the back of the mice. From 1st day to 9th day, the mice were orally administered with the test compound at a dose of 8 mg/kg (10 mL/kg) once a day. At 4 hours after the administration on the 9th day, the gelatin sponge was taken out and digested. The plaque was detected.

SMILES | fraction unbound at 4 h, 2 μM [1] | EC50 [2] [pM] | fraction unbound at 4 h, 2 μM [3] | fraction unbound at 4 h, 2 μM [4] | decrease in HCMV viral load [5] [log PFU/mL]
COc1cc(N2CCN(C3=Nc4c(csc4F)[C@H](CC(=O)O)N3c3cc(C(F)(F)F)ccc3OC)C[C@H]2C)ccn1 (single isomer, unassigned) [WX-147] | 0.014 | 170 | 0.002 | 0.018 | 
COc1cc(N2CCN(C3=Nc4ccsc4[C@H](CC(=O)O)N3c3cc(C(F)(F)F)ccc3OC)C[C@H]2C)ccn1 (single isomer, unassigned) [WX-141] | 0.061 | 200 | 0.017 | 0.06 | 2.38
COc1cccc(N2CCN(C3=Nc4ccsc4[C@H](CC(=O)O)N3c3cc(C(F)(F)F)ccc3OC)C[C@H]2C)c1 (single isomer, unassigned) [WX-136] |  | 170 |  |  | 2.33
COc1cccc(N2CCN(C3=Nc4c(csc4F)[C@H](CC(=O)O)N3c3cc(C(F)(F)F)ccc3OC)C[C@H]2C)c1 (single isomer, unassigned) [WX-132] | 0.017 | 150 | 0.011 | 0.022 | 
COc1cc(N2[C@H](C)CN(C3=Nc4ccsc4[C@H](CC(=O)O)N3c3cc(C(F)(F)F)ccc3OC)C[C@@H]2C)ccn1 (single isomer, unassigned) [WX-161] | 0.023 | 317 | 0.004 | 0.02 | 
COc1ccnc(N2CCN(C3=Nc4ccsc4[C@H](CC(=O)O)N3c3cc(C(F)(F)F)ccc3OC)C[C@H]2C)c1 (single isomer, unassigned) [WX-139] | 0.041 | 3000 | 0.014 | 0.06 | 
COc1cc(N2CCN(C3=Nc4cscc4[C@H](CC(=O)O)N3c3cc(C(F)(F)F)ccc3OC)C[C@H]2C)ccn1 (single isomer, unassigned) [WX-151] | 0.05 | 503 | 0.011 | 0.047 | 2.30
COc1ccnc(N2CCN(C3=Nc4c(csc4F)[C@H](CC(=O)O)N3c3cc(C(F)(F)F)ccc3OC)C[C@H]2C)c1 (single isomer, unassigned) [WX-145] | 0.014 | 2000 | 0.001 | 0.023 | 
COc1cc(N2CCN(C3=Nc4ccsc4[C@H](CC(=O)O)N3c3cc(C(F)(F)F)ccc3OC)C[C@H]2C)ncn1 (single isomer, unassigned) [WX-143] | 0.066 | 890 | 0.015 | 0.069 | 
COc1cc(N2CCN(C3=Nc4c(C)csc4[C@H](CC(=O)O)N3c3cc(C(F)(F)F)ccc3OC)C[C@H]2C)ccn1 (single isomer, unassigned) [WX-153] | 0.02 | 260 | 0.011 | 0.019 | 
COc1cccc(N2CCN(C3=Nc4ccsc4[C@H](CC(=O)O)N3c3cc(C(F)(F)F)ccc3OC)CC2)c1 (single isomer, unassigned) [WX-088] | 0.028 | 2000 | 0.022 | 0.024 | 
COc1cc(N2CCN(C3=Nc4ccsc4[C@H](CC(=O)O)N3c3cc(C(F)(F)F)ccc3OC)CC2)ccn1 (single isomer, unassigned) [WX-109] | 0.108 | 4000 | 0.055 | 0.097 | 
COc1cc(N2CCN(C3=Nc4c(csc4F)[C@H](CC(=O)O)N3c3cc(C(F)(F)F)ccc3OC)C[C@H]2C)ncn1 (single isomer, unassigned) [WX-149] | 0.017 | 670 | 0.002 | 0.024 | 
